Experimental findings from article PMC6152052, “Molecular Structure–Affinity Relationship of Flavonoids in Lotus Leaf (Nelumbo nucifera Gaertn.) on Binding to Human Serum Albumin and Bovine Serum Albumin by Spectroscopic Method” (Molecules : A Journal of Synthetic Chemistry and Natural …, 2017) are described below.

Assay [1] has as its target T1, human serum albumin (HSA) (Homo sapiens, UniProt P02768).
T1 construct: gene ALB; 585 residues, 66,500 Da, single non-glycosylated chain
Put plainly: intrinsic fluorescence quenching, double-log plot. The format is binding. An excerpt:
intrinsic fluorescence quenching, double-log plot on human serum albumin (HSA)

In assay [2] the target is T2, bovine serum albumin (BSA) (Bos taurus, UniProt P02769).
T2 construct: gene ALB
T2 sequence (P02769 25-607): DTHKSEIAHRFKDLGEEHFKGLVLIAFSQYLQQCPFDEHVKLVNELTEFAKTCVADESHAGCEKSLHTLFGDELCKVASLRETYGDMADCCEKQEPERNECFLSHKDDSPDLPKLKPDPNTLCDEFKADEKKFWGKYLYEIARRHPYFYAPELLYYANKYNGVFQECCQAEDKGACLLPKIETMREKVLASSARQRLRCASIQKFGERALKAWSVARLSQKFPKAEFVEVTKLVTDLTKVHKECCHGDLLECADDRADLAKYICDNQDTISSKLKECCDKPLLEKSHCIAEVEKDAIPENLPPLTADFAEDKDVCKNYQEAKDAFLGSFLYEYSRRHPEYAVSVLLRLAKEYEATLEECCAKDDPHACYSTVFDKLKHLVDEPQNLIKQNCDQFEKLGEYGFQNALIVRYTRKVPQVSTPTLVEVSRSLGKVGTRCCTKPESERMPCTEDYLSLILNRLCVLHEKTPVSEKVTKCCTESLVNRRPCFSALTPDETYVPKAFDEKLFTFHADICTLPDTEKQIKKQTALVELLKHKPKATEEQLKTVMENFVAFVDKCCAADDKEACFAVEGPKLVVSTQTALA
Briefly: intrinsic fluorescence quenching, double-log plot. The format is binding. From the text:
intrinsic fluorescence quenching, double-log plot on bovine serum albumin (BSA)

Read-outs that look alike come from different tables or passages of the source.

T1 sequence (P02768 25-609): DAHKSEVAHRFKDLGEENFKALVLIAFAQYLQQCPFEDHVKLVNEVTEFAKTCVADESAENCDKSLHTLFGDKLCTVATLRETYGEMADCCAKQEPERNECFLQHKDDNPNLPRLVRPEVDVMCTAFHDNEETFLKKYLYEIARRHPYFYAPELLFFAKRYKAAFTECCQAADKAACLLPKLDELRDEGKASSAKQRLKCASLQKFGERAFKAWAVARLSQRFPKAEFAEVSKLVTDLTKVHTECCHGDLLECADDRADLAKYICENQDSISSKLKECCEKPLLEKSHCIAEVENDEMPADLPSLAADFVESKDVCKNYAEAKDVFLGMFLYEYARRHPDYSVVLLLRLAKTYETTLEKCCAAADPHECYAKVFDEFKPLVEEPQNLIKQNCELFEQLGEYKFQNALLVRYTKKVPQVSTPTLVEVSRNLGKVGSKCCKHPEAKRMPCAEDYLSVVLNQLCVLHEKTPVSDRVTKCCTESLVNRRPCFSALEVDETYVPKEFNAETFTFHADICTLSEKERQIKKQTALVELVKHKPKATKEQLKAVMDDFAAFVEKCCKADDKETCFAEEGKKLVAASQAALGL

For `O=c1c(O[C@@H]2O[C@H](CO)[C@H](O)[C@H](O)[C@H]2O)c(-c2ccc(O)c(O)c2)oc2cc(O)cc(O)c12` [compound 3, hyperoside], the “HSA Affinity / logKa” value in assay [1] (PBS pH 7.4, 300.15 K, ex 280 nm, em 336 nm, n = 0.960, double-log) is reported as 6.802 log (L/mol). In addition, the “BSA Affinity / logKa” value in assay [2] (PBS pH 7.4, 300.15 K, ex 280 nm, em 341 nm, n = 0.950, double-log) was 6.891 log (L/mol).
With `C[C@@H]1O[C@@H](OC[C@H]2O[C@@H](Oc3c(-c4ccc(O)c(O)c4)oc4cc(O)cc(O)c4c3=O)[C@H](O)[C@@H](O)[C@@H]2O)[C@H](O)[C@H](O)[C@H]1O` [compound 2, rutin], the “HSA Affinity / logKa” value in assay [1] (PBS pH 7.4, 300.15 K, ex 280 nm, em 336 nm, n = 0.992, double-log) is 5.896 log (L/mol). Besides, the “BSA Affinity / logKa” value in assay [2] (PBS pH 7.4, 300.15 K, ex 280 nm, em 341 nm, n = 0.962, double-log) is 6.686 log (L/mol).
For `O=c1cc(-c2ccc(O)c(O)c2)oc2cc(O)cc(O)c12` [compound 6, luteolin], the “HSA Affinity / logKa” value in assay [1] (PBS pH 7.4, 300.15 K, ex 280 nm, em 336 nm, n = 0.904, double-log) is recorded as 7.064 log (L/mol). The “BSA Affinity / logKa” value in assay [2] (PBS pH 7.4, 300.15 K, ex 280 nm, em 341 nm, n = 0.923, double-log) is given as 7.110 log (L/mol).
Turning to `O=c1c(O[C@@H]2O[C@H](CO)[C@@H](O)[C@H](O)[C@H]2O)c(-c2ccc(O)c(O)c2)oc2cc(O)cc(O)c12` [compound 4, isoquercitrin], in assay [1] (PBS pH 7.4, 300.15 K, ex 280 nm, em 336 nm, n = 0.936, double-log), the “HSA Affinity / logKa” value is recorded as 6.584 log (L/mol). Besides, the “BSA Affinity / logKa” value in assay [2] (PBS pH 7.4, 300.15 K, ex 280 nm, em 341 nm, n = 0.938, double-log) was 7.095 log (L/mol).
On to `O=C1c2c(O)cc(O)cc2O[C@H](c2ccc(O)c(O)c2)[C@H]1O` [compound 5, taxifolin], for which the “HSA Affinity / logKa” value in assay [1] is 6.748 log (L/mol). Besides, the “BSA Affinity / logKa” value in assay [2] is 7.067 log (L/mol).
`COc1cc(-c2oc3cc(O)cc(O)c3c(=O)c2O)ccc1O` [compound 11, isorhamnetin]: the “HSA Affinity / logKa” value in assay [1] (PBS pH 7.4, 300.15 K, ex 280 nm, em 336 nm, n = 0.923, double-log) is 6.798 log (L/mol). For the same molecule, in assay [2] (PBS pH 7.4, 300.15 K, ex 280 nm, em 341 nm, n = 0.941, double-log), the “BSA Affinity / logKa” value was 6.828 log (L/mol).
For `O=c1c(O)c(-c2ccc(O)cc2)oc2cc(O)cc(O)c12` [compound 10, kaempferol], the “HSA Affinity / logKa” value in assay [1] (PBS pH 7.4, 300.15 K, ex 280 nm, em 336 nm, n = 0.918, double-log) is on record as 6.830 log (L/mol). Moreover, in assay [2] (PBS pH 7.4, 300.15 K, ex 280 nm, em 341 nm, n = 0.911, double-log), the “BSA Affinity / logKa” value is listed as 7.106 log (L/mol).
Take `O=c1c(O)c(-c2ccc(O)c(O)c2)oc2cc(O)cc(O)c12` [compound 7, quercetin]: in assay [1], the “HSA Affinity / logKa” value is reported as 7.089 log (L/mol). Besides, the “BSA Affinity / logKa” value in assay [2] is 7.299 log (L/mol).
For the molecule `O=c1cc(-c2ccc(O)cc2)oc2cc(O)cc(O)c12` [compound 8, apigenin], the “HSA Affinity / logKa” value in assay [1] (PBS pH 7.4, 300.15 K, ex 280 nm, em 336 nm, n = 0.962, double-log) is 6.655 log (L/mol). In addition, in assay [2] (PBS pH 7.4, 300.15 K, ex 280 nm, em 341 nm, n = 0.870, double-log), the “BSA Affinity / logKa” value is given as 7.086 log (L/mol).
Consider `O=c1c(O[C@@H]2O[C@H](CO)[C@@H](O)[C@H](O)[C@H]2O)c(-c2ccc(O)cc2)oc2cc(O)cc(O)c12` [compound 1, astragalin], for which the “HSA Affinity / logKa” value in assay [1] (PBS pH 7.4, 300.15 K, ex 280 nm, em 336 nm, n = 0.994, double-log) is on record as 6.234 log (L/mol). For the same molecule, the “BSA Affinity / logKa” value in assay [2] (PBS pH 7.4, 300.15 K, ex 280 nm, em 341 nm, n = 0.963, double-log) is given as 6.359 log (L/mol).
With `O=C1C[C@@H](c2ccc(O)cc2)Oc2cc(O)cc(O)c21` [compound 9, naringenin], the “HSA Affinity / logKa” value in assay [1] is given as 6.493 log (L/mol). The “BSA Affinity / logKa” value in assay [2] is on record as 6.982 log (L/mol).
